How the values were obtained:
[1] = test system: AGS (Gastric Carcinoma); assay: Bliss excess, mean over the matrix (fraction); higher = more synergy
In short: (§1)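 After 24 hours at 37°C and 5% CO2 in 1536-well plates, cells in DMEM/F12 or RPMI plus 10% FBS received two-drug dose matrices for 72 hours. Viability came from CellTiter-Glo 2.0 luminescence and was scaled as inhibition, anchored at 0 by vehicle wells and at 1 by blank wells. Combination Emax is taken as the second-highest inhibition in the matrix, and Bliss excess as the observed combination effect less EA + EB − EA·EB, with EA and EB the single-agent effects.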

[2] = test system: KELLY (Neuroblastoma); assay: as above
In short: as §1

[3] = test system: MDA-MB-361 (Breast Carcinoma); assay: as above
In short: as §1

[4] = test system: MFE-296 (Endometrial Carcinoma); assay: as above
In short: as §1

[5] = test system: SK-ES-1 (Ewing's Sarcoma); assay: as above
In short: as §1

[6] = test system: TE-9 (Esophageal Squamous Cell Carcinoma); assay: as above
In short: as §1

[7] = test system: AGS (Gastric Carcinoma); assay: combination Emax (second highest fraction inhibited in the dose matrix, 72 h); higher = more inhibition; extreme values may be limits of the assay
In short: as §1

[8] = test system: B-CPAP (Thyroid Gland Carcinoma); assay: as above
In short: as §1

[9] = test system: COLO-205 (Colorectal Carcinoma); assay: as above
In short: as §1

[10] = test system: Calu-3 (Lung Adenocarcinoma); assay: as above
In short: as §1

[11] = test system: EC-GI-10 (Esophageal Squamous Cell Carcinoma); assay: as above
In short: as §1

[12] = test system: HuP-T4 (Pancreatic Carcinoma); assay: as above
In short: as §1

[13] = test system: KP-1N (Pancreatic Carcinoma); assay: as above
In short: as §1

[14] = test system: LS-180 (Colorectal Carcinoma); assay: as above
In short: as §1

[15] = test system: LU-135 (Small Cell Lung Carcinoma); assay: as above
In short: as §1

[16] = test system: MDA-MB-361 (Breast Carcinoma); assay: as above
In short: as §1

[17] = test system: MFE-296 (Endometrial Carcinoma); assay: as above
In short: as §1

[18] = test system: NOS-1 (Osteosarcoma); assay: as above
In short: as §1

[19] = test system: SNU-5 (Gastric Carcinoma); assay: as above
In short: as §1

[20] = test system: TE-15 (Esophageal Squamous Cell Carcinoma); assay: as above
In short: as §1
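For Bliss excess, mean over the matrix in this document: after 72 h of two-drug dosing.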

## CCN(CCO)CCCOc1ccc2c(Nc3cc(CC(=O)Nc4cccc(F)c4)[nH]n3)ncnc2c1 [AZD2811] + C[C@@H]1COCCN1C2=NC(=NC(=C2)C3(CC3)[S@](=N)(=O)C)C4=C5C=CNC5=NC=C4 [AZD6738] (first compound max 1 µM, 7x7, partner max 10 µM)
[1]
  Bliss excess: -0.0191
[2]
  Bliss excess: -0.042
[3]
  Bliss excess: -0.0816
[4]
  Bliss excess: -0.0728
[5]
  Bliss excess: 0.0382
[6]
  Bliss excess: -0.009
[7]
  combination Emax: 0.605
[8]
  combination Emax: 0.407
[9]
  combination Emax: 0.849
[10]
  combination Emax: 0.217
[11]
  combination Emax: 0.824
[12]
  combination Emax: 0.424
[13]
  combination Emax: 0.199
[14]
  combination Emax: 0.754
[15]
  combination Emax: 0.929
[16]
  combination Emax: 0.815
[17]
  combination Emax: 0.405
[18]
  combination Emax: 0.288
[19]
  combination Emax: 0.907
[20]
  combination Emax: 0.731

## CCN(CCO)CCCOc1ccc2c(Nc3cc(CC(=O)Nc4cccc(F)c4)[nH]n3)ncnc2c1 [AZD2811] + O=C(c1cc(Cc2n[nH]c(=O)c3ccccc23)ccc1F)N1CCN(C(=O)C2CC2)CC1 [Olaparib] (first compound max 1 µM, 7x7, partner max 10 µM)
[1]
  Bliss excess: 0.0484
[2]
  Bliss excess: -0.0359
[3]
  Bliss excess: -0.0133
[4]
  Bliss excess: -0.011
[5]
  Bliss excess: -0.0075
[6]
  Bliss excess: -0.0111
[7]
  combination Emax: 0.302
[8]
  combination Emax: 0.231
[9]
  combination Emax: 0.868
[10]
  combination Emax: 0.153
[11]
  combination Emax: 0.551
[12]
  combination Emax: 0.289
[13]
  combination Emax: 0.0679
[14]
  combination Emax: 0.36
[15]
  combination Emax: 0.88
[16]
  combination Emax: 0.27
[17]
  combination Emax: 0.211
[18]
  combination Emax: 0.22
[19]
  combination Emax: 0.108
[20]
  combination Emax: 0.25

## CN(CCO)CC[C@H](CSc1ccccc1)Nc1ccc(S(=O)(=O)NC(=O)c2ccc(N3CCC([C@@H](O)c4ccccc4-c4ccc(Cl)cc4)CC3)cc2)cc1S(=O)(=O)C(F)(F)F [AZD4320] + C1CN(CCC1(C(=O)N[C@@H](CCO)C2=CC=C(C=C2)Cl)N)C3=NC=NC4=C3C=CN4 [Capivasertib] (first compound max 1 µM, 7x7, partner max 3 µM)
[1]
  Bliss excess: -0.0081
[2]
  Bliss excess: -0.0433
[3]
  Bliss excess: -0.0442
[4]
  Bliss excess: -0.0255
[5]
  Bliss excess: 0.0827
[6]
  Bliss excess: 0.0169
[7]
  combination Emax: 0.692
[8]
  combination Emax: 0.284
[9]
  combination Emax: 0.831
[10]
  combination Emax: 0.124
[11]
  combination Emax: 0.204
[12]
  combination Emax: 0.0723
[13]
  combination Emax: 0.0744
[14]
  combination Emax: 0.213
[15]
  combination Emax: 1
[16]
  combination Emax: 0.341
[17]
  combination Emax: 0.388
[18]
  combination Emax: 0.475
[19]
  combination Emax: 0.447
[20]
  combination Emax: 0.141

## CN(CCO)CC[C@H](CSc1ccccc1)Nc1ccc(S(=O)(=O)NC(=O)c2ccc(N3CCC([C@@H](O)c4ccccc4-c4ccc(Cl)cc4)CC3)cc2)cc1S(=O)(=O)C(F)(F)F [AZD4320] + C=CCn1c(=O)c2cnc(Nc3ccc(N4CCN(C)CC4)cc3)nc2n1-c1cccc(C(C)(C)O)n1 [AZD1775] (first compound max 1 µM, partner max 1 µM)
[1]
  Bliss excess: 0.0191
[2]
  Bliss excess: 0.0505
[3]
  Bliss excess: -0.034
[4]
  Bliss excess: -0.0075
[5]
  Bliss excess: 0.093
[6]
  Bliss excess: 0.0368
[7]
  combination Emax: 0.999
[8]
  combination Emax: 0.632
[9]
  combination Emax: 0.902
[10]
  combination Emax: 0.182
[11]
  combination Emax: 0.903
[12]
  combination Emax: 0.395
[13]
  combination Emax: 0.398
[14]
  combination Emax: 0.422
[15]
  combination Emax: 1
[16]
  combination Emax: 0.918
[17]
  combination Emax: 0.273
[18]
  combination Emax: 0.992
[19]
  combination Emax: 0.658
[20]
  combination Emax: 0.615

## CN(CCO)CC[C@H](CSc1ccccc1)Nc1ccc(S(=O)(=O)NC(=O)c2ccc(N3CCC([C@@H](O)c4ccccc4-c4ccc(Cl)cc4)CC3)cc2)cc1S(=O)(=O)C(F)(F)F [AZD4320] + CCN(CCO)CCCOc1ccc2c(Nc3cc(CC(=O)Nc4cccc(F)c4)[nH]n3)ncnc2c1 [AZD2811] (first compound max 1 µM, 7x7, partner max 1 µM)
[1]
  Bliss excess: 0.192
[2]
  Bliss excess: 0.051
[3]
  Bliss excess: 0.122
[4]
  Bliss excess: -0.0109
[5]
  Bliss excess: 0.0156
[6]
  Bliss excess: 0.03
[7]
  combination Emax: 0.979
[8]
  combination Emax: 0.57
[9]
  combination Emax: 0.974
[10]
  combination Emax: 0.168
[11]
  combination Emax: 0.401
[12]
  combination Emax: 0.274
[13]
  combination Emax: 0.0993
[14]
  combination Emax: 0.18
[15]
  combination Emax: 1
[16]
  combination Emax: 0.679
[17]
  combination Emax: 0.11
[18]
  combination Emax: 0.667
[19]
  combination Emax: 0.45
[20]
  combination Emax: 0.141

## CN(CCO)CC[C@H](CSc1ccccc1)Nc1ccc(S(=O)(=O)NC(=O)c2ccc(N3CCC([C@@H](O)c4ccccc4-c4ccc(Cl)cc4)CC3)cc2)cc1S(=O)(=O)C(F)(F)F [AZD4320] + CN(C)CCCOc1ccc(-c2ccc3ncc4c(c3c2)n(C2CCOCC2)c(=O)n4C)cn1 [AZD0156] (first compound max 1 µM, 7x7, partner max 1 µM)
[1]
  Bliss excess: -0.0561
[2]
  Bliss excess: 0.077
[3]
  Bliss excess: -0.0589
[4]
  Bliss excess: -0.0346
[5]
  Bliss excess: 0.047
[6]
  Bliss excess: -0.0101
[7]
  combination Emax: 0.237
[8]
  combination Emax: 0.408
[9]
  combination Emax: 0.77
[10]
  combination Emax: 0.117
[11]
  combination Emax: 0.193
[12]
  combination Emax: 0.127
[13]
  combination Emax: 0.194
[14]
  combination Emax: 0.159
[15]
  combination Emax: 1
[16]
  combination Emax: 0.205
[17]
  combination Emax: 0.0842
[18]
  combination Emax: 0.611
[19]
  combination Emax: 0.245
[20]
  combination Emax: 0.0786
